Data: ChEMBL document CHEMBL1201862, “PubChem BioAssay data set” (2004)
Activity calls are given as the source filed them.

Key:
Cytochrome P450 2C19 = Cytochrome P450 2C19 (Homo sapiens, UniProt P33261); assay: Cytochrome panel assay with activity outcomes. Panel member name: p450-cyp2c19 Compounds with AC50 equal or less than 10 uM are considered active; assay type: functional; conditions: read-out: AC50
Cytochrome P450 2D6 = Cytochrome P450 2D6 (Homo sapiens, UniProt P10635);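 note: CYP2D6 member of a cytochrome P450 panel assay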
Cytochrome P450 2D6, sequence (P10635 whole entry): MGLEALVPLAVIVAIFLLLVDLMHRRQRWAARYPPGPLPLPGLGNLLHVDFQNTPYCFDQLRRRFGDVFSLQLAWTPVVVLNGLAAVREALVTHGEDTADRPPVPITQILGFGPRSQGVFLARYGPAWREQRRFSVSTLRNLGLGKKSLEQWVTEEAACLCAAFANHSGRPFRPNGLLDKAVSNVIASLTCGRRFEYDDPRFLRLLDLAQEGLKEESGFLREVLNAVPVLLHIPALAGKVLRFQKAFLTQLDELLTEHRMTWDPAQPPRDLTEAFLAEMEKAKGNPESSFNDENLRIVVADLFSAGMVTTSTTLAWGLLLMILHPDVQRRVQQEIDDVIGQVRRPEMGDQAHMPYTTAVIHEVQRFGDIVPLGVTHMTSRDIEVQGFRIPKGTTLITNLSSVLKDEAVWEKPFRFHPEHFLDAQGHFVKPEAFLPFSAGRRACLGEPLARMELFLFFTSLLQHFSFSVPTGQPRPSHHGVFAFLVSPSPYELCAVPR

Cytochrome P450 3A4 = Cytochrome P450 3A4 (Homo sapiens, UniProt P08684);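 note: CYP3A4 tested as one member of a cytochrome P450 panel screen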
Cytochrome P450 3A4, sequence (P08684 whole entry): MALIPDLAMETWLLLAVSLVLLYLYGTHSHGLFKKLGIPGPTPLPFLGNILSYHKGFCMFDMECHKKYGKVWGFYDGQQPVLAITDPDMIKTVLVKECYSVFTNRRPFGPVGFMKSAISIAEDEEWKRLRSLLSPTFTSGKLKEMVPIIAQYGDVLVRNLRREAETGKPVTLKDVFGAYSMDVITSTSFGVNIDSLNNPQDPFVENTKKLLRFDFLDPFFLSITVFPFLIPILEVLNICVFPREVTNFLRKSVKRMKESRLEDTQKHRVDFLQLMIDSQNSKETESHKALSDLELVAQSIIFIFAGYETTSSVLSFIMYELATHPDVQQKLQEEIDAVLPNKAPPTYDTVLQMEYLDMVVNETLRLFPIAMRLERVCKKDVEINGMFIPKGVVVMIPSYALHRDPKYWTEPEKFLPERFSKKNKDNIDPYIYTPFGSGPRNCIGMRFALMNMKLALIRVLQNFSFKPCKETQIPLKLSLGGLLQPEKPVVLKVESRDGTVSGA

[1] = cytotoxicity toward NIH3T3 fibroblasts, dose response, counter-screen, cell-based, ATP luminescence, mouse fibroblasts (AID 2010); assay type: functional;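 note: cells exposed to compound for about 90 hours before reading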
[2] = inhibitors of intracellular T. cruzi replication, confirmation, NIH3T3 host cells, beta-gal luminescence (AID 2044); assay type: functional, cell-based;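 note: intracellular parasites grown in NIH/3T3 mouse fibroblasts as host cells; luminescent beta-galactosidase reporter signal from transgenic T. cruzi replicating inside host cells; inhibitors lower the luminescence signal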
Streptococcus = assay: Group A Streptococcus viability loss, dose response, counter-screen for streptokinase expression inhibitor project, luminescence, BacTiterGlo (AID 1915); assay type: functional, organism-based;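 note: potency for reduction of bacterial viability or growth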
[3] = test system: Streptococcus sp. 'group A'; assay: growth inhibition of control SK(-) GAS strain, dose response, counter-screen for streptokinase expression inhibitor project, luminescence, kanamycin, BacTiterGlo, confirmation (AID 1900); assay type: functional, organism-based
Streptokinase A = target: T1, Streptokinase A (Streptococcus pyogenes serotype M1, UniProt P10520); assay: S. pyogenes streptokinase expression inhibitors, potency, dose response, plasminogen activation absorbance, OD405 (AID 1914); assay type: functional, Streptococcus pyogenes M1 GAS;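 note: secreted streptokinase activity via plasminogen activation per viability signal from cell pellet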
T1 sequence (P10520 whole entry): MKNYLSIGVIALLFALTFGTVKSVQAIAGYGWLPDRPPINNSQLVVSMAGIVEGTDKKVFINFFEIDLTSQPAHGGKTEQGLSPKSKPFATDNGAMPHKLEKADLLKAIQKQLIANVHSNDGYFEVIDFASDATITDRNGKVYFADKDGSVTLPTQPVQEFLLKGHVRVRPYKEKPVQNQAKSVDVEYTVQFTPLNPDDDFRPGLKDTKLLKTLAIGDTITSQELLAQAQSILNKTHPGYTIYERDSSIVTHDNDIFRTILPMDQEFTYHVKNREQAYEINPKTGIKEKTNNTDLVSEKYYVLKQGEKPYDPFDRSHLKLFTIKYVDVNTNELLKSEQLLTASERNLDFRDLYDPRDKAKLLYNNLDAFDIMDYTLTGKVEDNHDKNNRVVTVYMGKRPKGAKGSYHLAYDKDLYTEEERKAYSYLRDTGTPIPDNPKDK

[4] = HEp-2 cell cytotoxicity, dose response, cytotoxicity control for RSV inhibitor project, HTS (AID 2410); assay type: functional; conditions: human respiratory syncytial virus

Cytochrome P450 2C19, sequence (P33261 whole entry): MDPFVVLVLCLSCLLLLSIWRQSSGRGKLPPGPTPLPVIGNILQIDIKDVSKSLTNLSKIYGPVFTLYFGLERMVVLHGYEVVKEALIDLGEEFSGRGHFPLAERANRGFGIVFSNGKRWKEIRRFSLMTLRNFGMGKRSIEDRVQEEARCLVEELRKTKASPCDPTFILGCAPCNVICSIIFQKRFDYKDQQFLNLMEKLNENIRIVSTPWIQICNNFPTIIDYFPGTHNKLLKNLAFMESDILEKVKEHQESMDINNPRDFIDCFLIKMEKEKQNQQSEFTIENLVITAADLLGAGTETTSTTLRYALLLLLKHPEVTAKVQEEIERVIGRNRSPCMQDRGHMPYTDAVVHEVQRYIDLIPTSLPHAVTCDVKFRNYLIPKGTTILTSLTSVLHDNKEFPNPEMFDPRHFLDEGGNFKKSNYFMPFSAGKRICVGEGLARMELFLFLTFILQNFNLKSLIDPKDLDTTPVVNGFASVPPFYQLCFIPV

## COc1ccc(C2N=C(N)N=C(N)N2c2ccccc2OC)cc1OC (centres undefined)
Cytochrome P450 2C19
  AC50: 39.8 µM (inconclusive)

## CC[C@]1(c2cccc(O)c2)CCCCN(C)C1
Cytochrome P450 2D6
  AC50: 10 µM (inconclusive)

## COc1ccc(CNc2cc(-c3ccccc3Cl)ncn2)c(OC)c1
Cytochrome P450 2D6
  AC50: 39.8 µM (inconclusive)

## CN(C)c1ccc(/C=N\NC(=O)c2cnc3ccccc3c2)cc1
Cytochrome P450 3A4
  AC50: 3.98 µM (inconclusive)

## Cc1nn(Cc2c(F)c(F)c(F)c(F)c2F)c(C)c1NC(=O)c1ccc(COc2ccc(Cl)cc2Cl)o1
[1]
  EC50: > 60 µM (not active)
[2]
  EC50: 1.11 µM (active)

## O=c1cnc2cnc(N3CCNCC3)nc2n1Cc1cccs1
Cytochrome P450 3A4
  AC50: 15.8 µM (inconclusive)
Cytochrome P450 2D6
  AC50: 20 µM (inconclusive)

## CC(CC(=O)Nc1nc2ccccc2[nH]1)c1ccccc1 (centres undefined)
Streptococcus
  EC50: > 150 µM (not active)
[3]
  EC50: > 150 µM (not active)
Streptokinase A
  EC50: > 150 µM (not active)

## Cc1ccccc1S(=O)(=O)c1c(C)cc(-c2ccccc2)nc1O
Cytochrome P450 3A4
  AC50: 28.2 µM (inconclusive)

## CN(C)Cc1ccccc1-c1nccc(Nc2ccc(F)cc2)n1
Cytochrome P450 3A4
  AC50: 15.8 µM (inconclusive)

## CCSc1nnc(NC(=O)c2nc(-c3ccccc3)n(-c3ccccc3)n2)s1
Streptococcus
  EC50: 16.5 µM (active)
[3]
  EC50: 7.28 µM (active)
Streptokinase A
  EC50: 20.2 µM (active)

## c1ccc2sc(SCSc3nc4ccccc4s3)nc2c1
Streptococcus
  EC50: > 150 µM (not active)
[4]
  CC50: 29.5 µM (active)
[3]
  EC50: > 150 µM (not active)
Cytochrome P450 2D6
  AC50: 2.51 µM (inconclusive)
Streptokinase A
  EC50: > 150 µM (not active)

## CCC(=O)N(CCC(Cc1ccccc1)c1ccc2c(c1)OCO2)Cc1ccccc1F (centres undefined)
Streptococcus
  EC50: 40.3 µM (active)
[3]
  EC50: 12.2 µM (active)
Streptokinase A
  EC50: 10.7 µM (active)

## Brc1ccc(-c2noc(CCc3ccccc3)n2)cc1
[4]
  CC50: 47.7 µM (active)

## COc1ccc(/C=C2\SC(=O)N(CCNC(=O)C3CC(=O)N(c4ccccc4)C3)C2=O)cc1 (centres undefined)
Cytochrome P450 2D6
  AC50: 20 µM (inconclusive)

## CCCN1CCN(CCCNC(=O)Cn2nc(-c3ccc(C)cc3)ccc2=O)CC1
Cytochrome P450 2D6
  AC50: 20 µM (inconclusive)

## O=C(COc1cccnc1[N+](=O)[O-])N1N=C(c2ccc(Cl)cc2)CC1c1ccco1 (centres undefined)
[1]
  EC50: > 60 µM (not active)
[2]
  EC50: 2.8 µM (active)

## CC(C)=CCC/C(C)=C/CO/N=C1/C[C@@H](O)[C@@H](O)[C@@H]2[C@H]3C(=O)N(c4ccc(F)cc4F)C(=O)[C@@H]3CC[C@H]12
Cytochrome P450 3A4
  AC50: 3.98 µM (inconclusive)

## Cc1ccc(Sc2cc(C(=O)NCCCN(C)C)c3ccccc3n2)cc1
[1]
  EC50: 14.6 µM (active)
[2]
  EC50: 0.133 µM (active)

## N#C/C(=C\c1ccc(OCC(N)=O)cc1)c1ccccc1
[4]
  CC50: 36.8 µM (active)

## COc1ccc(N2CCN(CC(=O)Nc3nc4c(s3)CC(C)CC4)CC2)cc1 (centres undefined)
Streptococcus
  EC50: > 150 µM (not active)
[3]
  EC50: 23.8 µM (active)
Streptokinase A
  EC50: > 150 µM (not active)

## O=C(COn1nnc2ccc(C(F)(F)F)cc21)Nc1nnc(-c2ccccc2)o1
Streptococcus
  EC50: 3.65 µM (active)
[3]
  EC50: 2.77 µM (active)

## Cc1cccc(-n2nc([N+](=O)[O-])c(NCc3cccnc3)[n+]2[O-])c1
[1]
  EC50: > 60 µM (not active)
[2]
  EC50: 0.582 µM (active)
Cytochrome P450 2D6
  AC50: 12.6 µM (inconclusive)

## O=c1c(-c2ccc(F)cc2)nc2cncnc2n1-c1ccccc1
Cytochrome P450 3A4
  AC50: 12.6 µM (inconclusive)
Cytochrome P450 2D6
  AC50: 20 µM (inconclusive)

## CC1Cc2cc(S(=O)(=O)N3CCCCC3C)ccc2N1C(=O)C1CCC1 (centres undefined)
[4]
  CC50: 20.8 µM (active)

## CCCNC(=O)OC[C@@H]1O[C@H](c2ccccc2)C=C[C@@H]1Oc1ccc(OC)cc1
Cytochrome P450 2D6
  AC50: 3.16 µM (inconclusive)

## S=C(Nc1ccccc1)Nc1ccccc1C#Cc1ccccc1
Cytochrome P450 3A4
  AC50: 7.94 µM (inconclusive)
Cytochrome P450 2D6
  AC50: 15.8 µM (inconclusive)

## O=c1c(CCc2ccccc2)nc2cnc(N3CCNCC3)nc2n1C1CC1
Cytochrome P450 3A4
  AC50: 12.6 µM (inconclusive)
Cytochrome P450 2D6
  AC50: 39.8 µM (inconclusive)

## COc1cccc(-c2nccc(NCc3cccnc3)n2)c1
Cytochrome P450 2D6
  AC50: 25.1 µM (inconclusive)

## COC(=O)[C@@]1(Cc2ccc(OC)cc2)[C@H]2c3cc(C(=O)N4CCCC4)n(CCc4ccc(O)c(O)c4)c3C[C@H]2CN1C(=O)c1ccccc1
Cytochrome P450 2D6
  AC50: 39.8 µM (inconclusive)

## Oc1ccc(C[C@H]2CN=C(S)N2CCc2cc(C(F)(F)F)cc(C(F)(F)F)c2)cc1
[4]
  CC50: 28.9 µM (active)

## O=C(Nc1ccccc1)N1CCCC2(CCN(C(=O)c3cccc(F)c3)CC2)C1
Cytochrome P450 2C19
  AC50: 10 µM (inconclusive)

## COc1ccc(N2CC(C(=O)Nc3nnc(SCc4cccnc4)s3)CC2=O)cc1 (centres undefined)
Streptococcus
  EC50: > 150 µM (not active)
[3]
  EC50: > 150 µM (not active)
Streptokinase A
  EC50: > 150 µM (not active)

## COc1ccccc1N1CCN(C/C=C/c2ccc(N(C)C)cc2)CC1
[1]
  EC50: > 60 µM (not active)
[2]
  EC50: 1.46 µM (active)

## Cc1ccc(C(c2nnnn2C2CCCC2)N2CCN3CCCC3C2)cc1 (centres undefined)
Cytochrome P450 2C19
  AC50: 31.6 µM (inconclusive)

## Cc1c(-c2cccc(Cl)c2)nc2ccccc2c1C(=O)OCC(=O)Nc1ccc2c(c1)OCO2
[1]
  EC50: > 60 µM (not active)
[2]
  EC50: 2.22 µM (active)
[4]
  CC50: 16.3 µM (active)

## Cn1nc(C(=O)NC2CCCCC2)c2ccccc2c1=O
Cytochrome P450 3A4
  AC50: 5.01 µM (inconclusive)
Cytochrome P450 2D6
  AC50: 10 µM (inconclusive)

## Cc1c(Cc2ccccc2)c(=O)oc2cc(OCc3ccc(C(=O)O)cc3)ccc12
Streptococcus
  EC50: > 50 µM (not active)
[3]
  EC50: 7.39 µM (active)
Streptokinase A
  EC50: > 150 µM (not active)

## COc1cccc(CC2(CO)CCCN(C/C=C/c3ccccc3OC)C2)c1 (centres undefined)
[1]
  EC50: > 60 µM (inconclusive)
[2]
  EC50: 0.209 µM (active)

## CCCCCC(=O)Nc1cccc(C2=NOC3(C2)C[C@@H](C(N)=O)N(C(=O)c2ccc(Cl)cc2)C3)c1 (some centres undefined)
[1]
  EC50: > 30 µM (not active)
[2]
  EC50: 0.374 µM (active)

## Cc1cc(Br)ccc1NC(=O)CN1C(=O)C2C3CC(c4ccccc4)C(C3)C2C1=O (centres undefined)
[1]
  EC50: > 60 µM (not active)
[2]
  EC50: 2.6 µM (active)

## Cc1ccc(S(=O)(=O)Nc2ccc(Cl)cc2)cc1NC(=O)c1cc2c(s1)CCCC2
[1]
  EC50: 25.8 µM (active)
[2]
  EC50: 1.18 µM (active)
Streptococcus
  EC50: 14.9 µM (active)
[3]
  EC50: 4.39 µM (active)
Streptokinase A
  EC50: > 150 µM (not active)

## COc1ccccc1-c1cc(-c2ccccc2)nc(SCC(=O)O)c1C#N
Streptococcus
  EC50: 13.4 µM (active)
[3]
  EC50: 3.36 µM (active)
Streptokinase A
  EC50: 1.72 µM (active)

## C/C(CCN1CCCc2nc(C)c(C)cc21)=N\OC[C@@H](O)COCc1ccco1
Cytochrome P450 2D6
  AC50: 3.16 µM (inconclusive)

## COc1ccc2sc(N(CCCN(C)C)C(=O)c3ccc(S(=O)(=O)N4CCCc5ccccc54)cc3)nc2c1
[1]
  EC50: 5.35 µM (active)
[2]
  EC50: 0.139 µM (active)

## CCc1ncc(CO)n1Cc1cccc2ccccc12
Cytochrome P450 2C19
  AC50: 0.398 µM (inconclusive)

## CNc1ccnc(-c2ccccc2C(F)(F)F)n1
Cytochrome P450 2C19
  AC50: 25.1 µM (inconclusive)
Cytochrome P450 3A4
  AC50: 25.1 µM (inconclusive)

## COc1ccc(OC)c(-c2cc(C(=O)Nc3cccc(Cl)c3)no2)c1
[1]
  EC50: > 30 µM (not active)
[2]
  EC50: 2.43 µM (active)

## CCCS(=O)(=O)N1CCCC(C(=O)NCCN(C)Cc2ccccc2)C1 (centres undefined)
Cytochrome P450 2D6
  AC50: 5.01 µM (inconclusive)

## N#Cc1cccc(NC(=O)N2CC[C@@]3(CCCNC3)C2)c1
Cytochrome P450 3A4
  AC50: 25.1 µM (inconclusive)

## Cn1c(S)nnc1-c1cc(Br)ccc1O
Streptococcus
  EC50: > 150 µM (not active)
[3]
  EC50: 11 µM (active)

## Nc1ncnc(Nc2cccc(Cl)c2Cl)n1
[4]
  CC50: 26.1 µM (active)

## COc1ccc(C2C(=O)N(CCc3ccccc3)CC(=O)N2C2CCCC2)cc1 (centres undefined)
Cytochrome P450 2D6
  AC50: 14.1 µM (inconclusive)

## CN(C)c1ncc2nc(-c3cccs3)c(=O)n(Cc3cccs3)c2n1
Cytochrome P450 3A4
  AC50: 3.16 µM (inconclusive)

## CCOC(=O)c1c(-c2cccs2)csc1NC(=O)C(C)(C)C
[4]
  CC50: 49.8 µM (active)

## COCCNc1nc(-c2ccc(N(C)C)cc2)nc2ccccc12
Cytochrome P450 2D6
  AC50: 39.8 µM (inconclusive)

## CC(C)(C)c1ccc(O)c(/N=C/c2c(O)ccc3ccccc23)c1
Streptococcus
  EC50: > 150 µM (not active)
[3]
  EC50: 5.5 µM (active)
Streptokinase A
  EC50: > 150 µM (not active)

## Cc1ccc(C)c(/C=N/NC(=S)NCCc2ccccc2)c1
Streptococcus
  EC50: > 150 µM (not active)
[3]
  EC50: 32.3 µM (active)
Streptokinase A
  EC50: > 150 µM (not active)

## COc1ccccc1N(CC(=O)N/N=C/c1ccc(OCC(=O)NCc2ccco2)cc1)S(=O)(=O)c1ccc(C)cc1
[4]
  CC50: 42.5 µM (active)

## Nc1cc(Cl)nc(N/N=C/c2ccccc2[N+](=O)[O-])n1
Cytochrome P450 2C19
  AC50: 8.91 µM (inconclusive)

## C/C(=N\NC(N)=O)c1ccccc1Cl
[4]
  CC50: 19.4 µM (active)

## Cc1c(-c2ccc(O)cc2)nn(-c2ccc(O)cc2)c1-c1ccc(OCCN2CCCCC2)cc1
Cytochrome P450 3A4
  AC50: 3.16 µM (inconclusive)

## CCc1ccc(C2=Nn3c(nnc3-c3cccs3)SC2)cc1
Cytochrome P450 2C19
  AC50: 5.62 µM (inconclusive)
